Assay results as given in PubChem BioAssay (NCI).
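Dose response: 5 concentrations. Exposure: 48 h. Format: 96-well plates. Endpoint: linear interpolation; highest concentration if not reached. TGI: concentration producing complete growth inhibition.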

Assays:
Experiment in all cases: NCI-60 cell line screen, 48 h
MCF7 breast = test system: MCF7 breast
DU-145 prostate = test system: DU-145 prostate
SNB-19 CNS = test system: SNB-19 CNS
SW-620 colon = test system: SW-620 colon
ACHN renal = test system: ACHN renal
M14 melanoma = test system: M14 melanoma
HS 578T breast = test system: HS 578T breast
HCT-116 colon = test system: HCT-116 colon
SK-MEL-5 melanoma = test system: SK-MEL-5 melanoma
HL-60(TB) leukemia = test system: HL-60(TB) leukemia

| SMILES | TGI (MCF7 breast) | TGI (DU-145 prostate) | TGI (SNB-19 CNS) | TGI (SW-620 colon) | TGI (ACHN renal) | TGI (M14 melanoma) | TGI (HS 578T breast) | TGI (HCT-116 colon) | TGI (SK-MEL-5 melanoma) | TGI (HL-60(TB) leukemia) |
| --- | --- | --- | --- | --- | --- | --- | --- | --- | --- | --- |
| Cc1cc(S(=O)(=O)Nc2nc3cc(-c4ccc(Cl)cc4)sc3c(=O)n2N)c(S)cc1Cl | > 100 µM | > 100 µM | > 100 µM | > 100 µM | 98.7 µM | > 100 µM | > 100 µM | > 100 µM | > 100 µM | – |
| CCC(=O)ONC(=O)Cn1ccc([N+](=O)[O-])n1 | > 100 µM | > 100 µM | > 100 µM | > 100 µM | > 100 µM | > 100 µM | > 100 µM | > 100 µM | > 100 µM | > 100 µM |
| C[N+]12CCCCC1C(CN1C(=O)Cc3c4ccccc4c(c4ccccc34)CC1=O)CCC2 (stereo not drawn) | > 100 µM | > 100 µM | > 100 µM | > 100 µM | > 100 µM | > 100 µM | > 100 µM | > 100 µM | > 100 µM | > 100 µM |
| CCOC(=O)NC(Nc1ccc([N+](=O)[O-])cc1)(C(F)(F)F)C(F)(F)F | > 100 µM | > 100 µM | > 100 µM | > 100 µM | > 100 µM | > 100 µM | > 100 µM | > 100 µM | > 100 µM | > 100 µM |
| NC(CCC(=O)NC(CSCC1C(=O)Nc2ccccc21)C(=O)NCC(=O)O)C(=O)O (stereo not drawn) | 17.5 µM | 12.9 µM | > 100 µM | 10.7 µM | 20 µM | 10.8 µM | > 100 µM | 9.27 µM | > 44.8 µM | 47.5 µM |
| CC(C(O)Cc1ccccc1)N(C)N=Nc1ccc([N+](=O)[O-])cc1 (stereo not drawn) | 80.6 µM | 85.5 µM | > 100 µM | 60.6 µM | 77 µM | 33.1 µM | 55.6 µM | 30.2 µM | 34.7 µM | > 100 µM |
| Oc1cccc(-c2nc3cc(F)ccc3s2)c1 | 51.4 µM | 57.9 µM | 99 µM | > 100 µM | 71.3 µM | 37.8 µM | – | 53.8 µM | 25 µM | 61 µM |
| CC(=O)NC1c2ccccc2C(C)(C)C12CCC1(CC2)OCCO1 (stereo not drawn) | > 100 µM | > 100 µM | > 100 µM | > 100 µM | > 100 µM | > 100 µM | > 100 µM | > 100 µM | > 100 µM | > 100 µM |
| COc1nc2nccnc2c(=O)n1C | > 10 µM | > 10 µM | > 10 µM | > 10 µM | > 10 µM | > 10 µM | > 10 µM | > 10 µM | > 10 µM | > 10 µM |
| CSc1cnc2ccccc2c1SC1CN(Cc2ccccc2)c2ccccc2C1=O (stereo not drawn) | > 100 µM | > 100 µM | > 100 µM | > 100 µM | > 100 µM | > 100 µM | – | > 100 µM | > 100 µM | > 100 µM |
| OCc1ccc(C2CC(c3ccco3)=NN2c2ccccc2)o1 (stereo not drawn) | – | – | > 100 µM | > 100 µM | > 100 µM | > 100 µM | – | > 100 µM | > 100 µM | > 100 µM |
| CCN1CCC(O)(/C=C/c2ccc(C)cc2C)C(C(=O)/C=C/c2ccc(C)cc2C)C1 (stereo not drawn) | 24.4 µM | 10.5 µM | 20.3 µM | 10.4 µM | 3.47 µM | 35.7 µM | 5.38 µM | – | 9.23 µM | > 100 µM |
| CC1=C(CO)C(=O)O[C@@H]([C@@H](CO)[C@H]2CCC3C4C[C@@H](O)[C@@]5(O)CC=CC(=O)[C@]5(C)C4CC[C@@]32C)C1 (stereo partly drawn) | > 100 µM | > 100 µM | > 100 µM | > 100 µM | > 100 µM | > 100 µM | > 100 µM | > 100 µM | > 100 µM | > 100 µM |
| CC(=O)O[C@]12CCCCCC1C1(O)C(O)CCCC[C@H]12 (stereo partly drawn) | – | – | > 100 µM | > 100 µM | > 100 µM | > 100 µM | – | – | > 100 µM | > 100 µM |
| O=C1/C(=C/c2ccc(Cl)cc2)CSc2ccccc21 | 9.35 µM | > 100 µM | 39.4 µM | > 100 µM | – | > 100 µM | 75.5 µM | – | 46 µM | 64.6 µM |
| COc1ccc2cc(C(C)C(=O)N3CCOC3=O)ccc2c1 (stereo not drawn) | > 100 µM | > 100 µM | > 100 µM | > 100 µM | > 100 µM | > 100 µM | > 100 µM | > 100 µM | > 100 µM | > 100 µM |
| C=CCOc1ccc(C2(O)c3ccccc3C3=NCCCN32)cc1 (stereo not drawn) | > 100 µM | > 100 µM | > 100 µM | > 100 µM | > 72.2 µM | 35.1 µM | > 100 µM | > 100 µM | 45.7 µM | > 100 µM |
| N#CC1=C(N)N(c2ccccc2)C(c2ccccc2)C1(C#N)C#N (stereo not drawn) | 31.7 µM | 32.9 µM | 43.2 µM | 37.2 µM | 40.7 µM | 44.9 µM | > 100 µM | 29.4 µM | 26.9 µM | 43.9 µM |
| COC(=O)C1=C(C)NC(C)=C(C(=O)OC)C1c1nc2sccn2c1[N+](=O)[O-] | > 100 µM | > 100 µM | > 100 µM | > 100 µM | > 100 µM | > 100 µM | > 100 µM | > 100 µM | > 100 µM | > 100 µM |
| Nc1ccn(C2OC(CO)C(O)C2O)c(=O)c1 (stereo not drawn) | > 625 µM | – | > 625 µM | > 625 µM | – | – | – | > 625 µM | > 625 µM | > 625 µM |
| S=C(Nc1ccc2c(c1)oc1ccccc12)c1cccnc1 | > 100 µM | > 100 µM | 77.7 µM | > 100 µM | > 100 µM | > 100 µM | – | > 100 µM | > 100 µM | – |
| Nc1nc(Cl)cc(NCC2(CO)CCCC2)n1 | > 100 µM | > 100 µM | > 100 µM | > 100 µM | > 100 µM | > 100 µM | > 100 µM | > 100 µM | > 100 µM | > 100 µM |
| COc1c(C(C)C)cc2c3c1OC(=O)[C@@]31CCCC(C)(C)C1CC2 (stereo partly drawn) | – | – | 51.8 µM | > 100 µM | > 100 µM | > 100 µM | – | 29.1 µM | 28.4 µM | 37.4 µM |
